The target in one assay is native brain dynamin I (Ovis aries, UniProt A0ACI6NZN1). The experiment in a line: PS liposome-stimulated (helical) dynamin I GTPase activity, inhibition. It is filed as biochemical, sheep. As to conditions: 5 μM, increasing dynamin concentrations, FIG. 1. The protocol: Each of the dyngo compounds was synthesized by a simple one-step condensation reaction coupling 3-hydroxy-2-naphthoic acid hydrazide with a variety of hydroxyl substituted benzaldehydes affording a focussed library as illustrated by Scheme 1 below (e.g., by mixing the reagents in ethanol (e.g., 10 ml) in a round bottomed flask, refluxing the mixture for 2 hours, allowing it to cool and removing the solvent in vacuo prior to recrystallizing the product from ethanol although other synthesis methods available).
Among the various classes of dynamin inhibitors are subsets of dynamin ring stabilizers.

In the next assay the test system is dynamin. Put plainly: Electron microscopy of helical dynamin on PS liposomes. It is filed as biochemical. As to conditions: 5 μM, FIG. 8. An excerpt: FIGS. 8 (A) to (D) are electron micrographs showing Bis-T-23 prevents constriction or helical expansion of dynamin on PS liposomes in vitro. It stabilizes the dynamin helix, which loses its flexibility and forms uniform diameter rings, inhibiting dynamin ring disassembly.
A characteristic of helical dynamin is that the helix is a highly flexible structure. Upon GTP hydrolysis it is able to rapidly reduce its diameter (constriction) while also expanding in length (helical expansion) (Stowell et al. 1999; Chen et al. 2004; Roux et al. 2006). This is thought to be a potential mechanism utilized for the fission of the necks of newly budded endocytic vesicles in cells (Roux et al. 2006). The highly flexible nature of helical dynamin was confirmed by EM analysis of dynamin bound to phosphatidylserine liposomes in the absence of GTP or GDP (FIG. 8). Dynamin mixed with PS liposomes formed a helix with specific characteristics (FIGS. 8A and C): the individual loops of the helix were highly varied in diameter, formed at different angles relative to the underlying lipid, and the spacing between loops was highly variable. […] Bis-T-23 bound dynamin appeared similar to previous reports of GTPγS-bound dynamin on lipid nanotubes (Stowell et al. 1999).

The next assay relates to dynamin I. Put plainly: Dynamin disassembly centrifugation assay, helix preassembled on PS liposomes. Type of assay: biochemical. The note with it: FIG. 7. The protocol:
Briefly, dynamin I was preassembled as a helix in the presence of PS liposomes for 30 min, after which the dynamin ring stabilizer Bis-T-23 or non-dynamin ring stabilizer dynole 34-2 (see Example 4) were added. The samples were then centrigued in a microfuge for 10 min to collect supernatans (Sup) or pellets. In this assay, helical dynamin is found primarily in the pellet. However, the addition of either NaCl (150 mM) or Mg/GTP (1 mM) is known to disassemble dynamin and it is found primarily in the supernatant (see FIG. 7). […] This unique mechanism of action explains why dynamin ring stabilizers can stimulate basal GTPase while inhibiting helical dynamin GTPase activity at the same time.

A further assay deals with T1, full length dynamin I (Ovis aries, UniProt A0ACI6NZN1).
T1 sequence (A0ACI6NZN1 1-864): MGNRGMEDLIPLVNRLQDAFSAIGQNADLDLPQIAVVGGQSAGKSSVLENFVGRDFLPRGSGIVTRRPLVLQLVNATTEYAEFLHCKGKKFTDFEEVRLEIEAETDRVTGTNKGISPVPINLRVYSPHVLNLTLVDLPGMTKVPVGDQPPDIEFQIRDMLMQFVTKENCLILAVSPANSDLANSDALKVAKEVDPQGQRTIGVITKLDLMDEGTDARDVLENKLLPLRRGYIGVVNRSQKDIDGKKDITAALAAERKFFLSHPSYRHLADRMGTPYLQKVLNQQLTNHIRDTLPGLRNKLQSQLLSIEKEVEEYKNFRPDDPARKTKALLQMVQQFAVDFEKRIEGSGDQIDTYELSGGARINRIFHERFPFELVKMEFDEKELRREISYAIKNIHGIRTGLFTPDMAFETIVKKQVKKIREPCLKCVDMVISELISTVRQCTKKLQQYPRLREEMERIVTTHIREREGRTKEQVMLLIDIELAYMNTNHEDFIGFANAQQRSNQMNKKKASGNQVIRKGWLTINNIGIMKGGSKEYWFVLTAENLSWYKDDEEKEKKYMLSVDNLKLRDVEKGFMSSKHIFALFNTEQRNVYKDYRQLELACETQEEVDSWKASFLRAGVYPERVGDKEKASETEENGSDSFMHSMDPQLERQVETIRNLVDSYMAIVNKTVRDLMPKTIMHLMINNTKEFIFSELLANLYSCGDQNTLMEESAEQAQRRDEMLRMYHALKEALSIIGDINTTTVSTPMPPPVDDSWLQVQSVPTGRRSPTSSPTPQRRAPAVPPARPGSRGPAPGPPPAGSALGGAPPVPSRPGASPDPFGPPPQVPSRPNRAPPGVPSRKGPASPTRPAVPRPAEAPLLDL
The experiment in a line: Basal dynamin GTPase activity in the absence of PS liposomes or other template (ring stabilizer activity). Type of assay: biochemical, sheep. The procedure: The compounds were present at the indicated concentrations and the concentration causing half-maximal stimulation is shown as the EC50.
Dynamin I (50 nM) GTPase stimulation was performed in the absence of the detergent Tween-80 (and in the absence of any known activators such as PS liposomes, nanotubes or microtubules). […] The GTPase activity of dynamin I (dynI; 200 nM) was measured in the absence of lipid activators (and in the presence of standard Tween-80 at 0.06%).
A compound (whether a dynamin inhibitor or not) can be identified as a dynamin ring stabilizer by assaying for its capacity to promote accumulation of dynamin rings and/or to inhibit disassembly of dynamin rings. […] GTPase activity of dynamin or dynamin rings can be determined by any conventionally known method (e.g., see Quan and Robinson. 2005). Such conditions include: (a) the absence of a helix assembly template such as liposomes, microtubules or lipid nanotubes, and (b) higher concentrations of dynamin than normally required for detecting template stimulated activity, typically 50-500 nM dynamin instead of 1-20 nM. Thus, ring stabilizer activity can be identified by the ability to stimulate the GTPase activity of full length dynamin in the absence of other stimulatory factors (such as PS liposomes, microtubules or nanotubes). Additional defining characteristics are available but are not essential if the first condition has been met. One such additional characteristic of ring stabilizer activity is that the stimulated activity occurs after a lag phase of a few minutes, rather than being an immediate activation in vitro. […] Such conditions typically mean utilising 50-200 nM dynamin in the absence of a template as distinct from higher concentrations where self-assembly is known to occur without the addition of a dynamin ring stabilizer.
Next, a time course experiment of Bis-T-23 stimulation of dynamin GTPase (FIG. 3) was conducted. […] The lag phase is thought to indicate the time required for dynamin to assemble as rings.

The test system of a further assay is endocytosis. The experiment in a line: Endocytosis in cells (data not shown). It is filed as cell-based. The procedure:
To determine if the in vitro action of the dynamin ring stabilizers also occurs in cells, the effect of Bis-T-23 on the actin cytoskeleton in cultured mouse podocytes was tested (FIG. 19). […] Thus, the observed increase in stress fibers is unlikely due to inhibition of endocytosis.

Structures are written as SMILES. Some results are limits rather than exact numbers.

`N#CC(=Cc1cc(O)c(O)c(O)c1)C(=O)NCCCNC(=O)C(C#N)=Cc1cc(O)c(O)c(O)c1` [Bis-T-23, 2-cyano-N-{3-[2-cyano-3-(3,4,5-trihydroxyphenyl)-acryloylamino]-propyl}-3-(3,4,5-trihydroxyphenyl)-acrylamide]: the “inhibition of liposome-stimulated dynamin GTPase activity” value on native brain dynamin I is “potently inhibits dynamin at all points”. Moreover, in the assay on dynamin, the “shape of dynamin helix on PS liposomes” value is on record as “drastically altered the helical shape”. Moreover, the “disassembly of helical dynamin by NaCl (150 mM) or Mg/GTP (1 mM)” value in the assay with dynamin I is “reduce the disassembly of helical dynamin”. The “lag phase before stimulation of dynamin GTPase activity” value at full length dynamin I (5 μM, 800 nM dynamin, 30 mM NaCl, FIG. 3) was “about 4 minutes”. Besides, the “stimulation of basal dynamin GTPase activity in the absence of Tween-80” value at full length dynamin I (Dynamin I 50 nM, no Tween-80, no activators, FIG. 11A) is recorded as “are dynamin ring stabilizers”. Besides, the “concentration causing 50% activation of basal dynamin activity (EC50)” value on full length dynamin I (FIG. 2, compared with IC50 of 500 nM) was “about the same value”. In addition, the “dynamin concentration at which basal GTPase activity is stimulated” value on full length dynamin I (absence of liposomes, 5 μM, FIG. 1) is given as at least 100 nM. The endocytosis result in the assay on endocytosis was “inhibits endocytosis”.
